Consider 22 compounds from ChEMBL document CHEMBL3991601, “The target landscape of clinical kinase drugs” (Science, 2017).

Active and inactive are the calls of the source. On the calls: in the data inactive means no Kd found up to 30 µM.

One assay concerns the target T1, Septin-9 (Homo sapiens, UniProt Q9UHD8).
T1 sequence (Q9UHD8 whole entry): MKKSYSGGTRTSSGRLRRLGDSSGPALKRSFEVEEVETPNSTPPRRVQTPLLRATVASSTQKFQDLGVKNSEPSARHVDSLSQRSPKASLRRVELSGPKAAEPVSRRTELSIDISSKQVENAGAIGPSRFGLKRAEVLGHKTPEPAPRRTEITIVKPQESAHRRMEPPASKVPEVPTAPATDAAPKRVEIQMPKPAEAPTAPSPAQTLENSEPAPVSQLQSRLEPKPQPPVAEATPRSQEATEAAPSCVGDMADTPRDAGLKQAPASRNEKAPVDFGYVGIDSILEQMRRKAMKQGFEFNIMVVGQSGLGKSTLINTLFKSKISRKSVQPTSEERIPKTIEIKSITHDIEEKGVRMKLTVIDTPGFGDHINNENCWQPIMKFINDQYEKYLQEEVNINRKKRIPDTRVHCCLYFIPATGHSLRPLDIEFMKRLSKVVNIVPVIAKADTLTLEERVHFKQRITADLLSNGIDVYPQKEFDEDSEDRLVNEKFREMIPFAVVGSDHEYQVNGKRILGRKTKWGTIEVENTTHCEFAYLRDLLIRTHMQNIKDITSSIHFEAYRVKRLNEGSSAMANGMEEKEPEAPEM

Assay [1] has as its target Myosin light chain kinase, smooth muscle (Homo sapiens, UniProt Q15746).
Assay [2] has as its target T2, Probable ATP-dependent RNA helicase DDX6 (Homo sapiens, UniProt P26196).
T2 sequence (P26196 whole entry): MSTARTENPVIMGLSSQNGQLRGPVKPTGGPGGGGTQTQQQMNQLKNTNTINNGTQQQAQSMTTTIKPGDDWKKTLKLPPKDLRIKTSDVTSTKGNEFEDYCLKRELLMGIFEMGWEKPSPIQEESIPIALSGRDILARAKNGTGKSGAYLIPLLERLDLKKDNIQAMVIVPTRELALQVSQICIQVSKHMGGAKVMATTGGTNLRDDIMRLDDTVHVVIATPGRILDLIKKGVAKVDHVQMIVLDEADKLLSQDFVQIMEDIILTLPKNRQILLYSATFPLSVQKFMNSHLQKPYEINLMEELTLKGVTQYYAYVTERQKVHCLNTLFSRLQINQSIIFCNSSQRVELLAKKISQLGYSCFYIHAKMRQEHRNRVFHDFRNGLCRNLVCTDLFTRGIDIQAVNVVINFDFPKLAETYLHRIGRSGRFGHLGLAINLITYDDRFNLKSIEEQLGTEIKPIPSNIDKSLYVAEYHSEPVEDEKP

For assay [3], the target named is T3, Long-chain-fatty-acid--CoA ligase 5 (Homo sapiens, UniProt Q9ULC5).
T3 sequence (Q9ULC5 whole entry): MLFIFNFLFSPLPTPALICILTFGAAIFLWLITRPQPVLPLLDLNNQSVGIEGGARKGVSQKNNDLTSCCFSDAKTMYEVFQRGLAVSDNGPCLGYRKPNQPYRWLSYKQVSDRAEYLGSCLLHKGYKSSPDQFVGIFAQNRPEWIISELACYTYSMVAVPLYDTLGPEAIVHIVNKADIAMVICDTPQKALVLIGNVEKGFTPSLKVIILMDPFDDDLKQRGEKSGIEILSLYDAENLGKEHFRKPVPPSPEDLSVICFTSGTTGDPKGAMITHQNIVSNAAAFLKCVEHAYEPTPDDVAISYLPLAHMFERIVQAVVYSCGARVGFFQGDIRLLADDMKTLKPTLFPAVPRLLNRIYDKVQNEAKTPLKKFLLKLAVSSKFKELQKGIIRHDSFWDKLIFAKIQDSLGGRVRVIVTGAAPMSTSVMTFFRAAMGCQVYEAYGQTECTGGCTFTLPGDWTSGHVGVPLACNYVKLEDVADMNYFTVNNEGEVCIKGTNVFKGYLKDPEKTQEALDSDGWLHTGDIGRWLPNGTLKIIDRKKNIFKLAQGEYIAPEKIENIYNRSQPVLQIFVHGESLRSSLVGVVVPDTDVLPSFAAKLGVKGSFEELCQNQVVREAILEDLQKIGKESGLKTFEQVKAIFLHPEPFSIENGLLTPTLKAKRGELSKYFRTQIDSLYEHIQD

In assay [4] the target is T4, DNA replication licensing factor MCM4 (Homo sapiens, UniProt P33991).
T4 sequence (P33991 whole entry): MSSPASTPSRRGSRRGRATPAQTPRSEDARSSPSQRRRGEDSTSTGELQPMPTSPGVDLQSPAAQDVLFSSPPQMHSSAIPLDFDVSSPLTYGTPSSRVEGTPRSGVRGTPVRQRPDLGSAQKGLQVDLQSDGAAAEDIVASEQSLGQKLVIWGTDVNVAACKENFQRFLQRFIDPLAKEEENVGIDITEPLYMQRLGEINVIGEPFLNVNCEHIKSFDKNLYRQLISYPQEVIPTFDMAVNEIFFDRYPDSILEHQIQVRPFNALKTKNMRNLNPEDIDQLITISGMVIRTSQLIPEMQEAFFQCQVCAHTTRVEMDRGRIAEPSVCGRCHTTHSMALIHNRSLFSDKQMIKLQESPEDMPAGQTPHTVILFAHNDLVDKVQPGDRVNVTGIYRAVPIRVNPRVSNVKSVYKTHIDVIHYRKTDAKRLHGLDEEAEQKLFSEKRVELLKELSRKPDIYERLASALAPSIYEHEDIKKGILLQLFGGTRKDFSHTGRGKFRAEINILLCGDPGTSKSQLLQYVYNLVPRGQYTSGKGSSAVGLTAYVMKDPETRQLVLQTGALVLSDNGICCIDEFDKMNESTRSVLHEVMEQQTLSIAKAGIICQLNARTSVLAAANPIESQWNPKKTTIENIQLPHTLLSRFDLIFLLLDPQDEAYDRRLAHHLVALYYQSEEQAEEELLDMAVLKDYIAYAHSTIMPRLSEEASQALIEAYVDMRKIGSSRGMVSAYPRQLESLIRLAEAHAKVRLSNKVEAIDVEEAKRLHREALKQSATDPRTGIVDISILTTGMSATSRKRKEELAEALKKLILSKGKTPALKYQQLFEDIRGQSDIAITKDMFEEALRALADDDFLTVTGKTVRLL

Myosin light chain kinase, smooth muscle, sequence (Q15746 whole entry): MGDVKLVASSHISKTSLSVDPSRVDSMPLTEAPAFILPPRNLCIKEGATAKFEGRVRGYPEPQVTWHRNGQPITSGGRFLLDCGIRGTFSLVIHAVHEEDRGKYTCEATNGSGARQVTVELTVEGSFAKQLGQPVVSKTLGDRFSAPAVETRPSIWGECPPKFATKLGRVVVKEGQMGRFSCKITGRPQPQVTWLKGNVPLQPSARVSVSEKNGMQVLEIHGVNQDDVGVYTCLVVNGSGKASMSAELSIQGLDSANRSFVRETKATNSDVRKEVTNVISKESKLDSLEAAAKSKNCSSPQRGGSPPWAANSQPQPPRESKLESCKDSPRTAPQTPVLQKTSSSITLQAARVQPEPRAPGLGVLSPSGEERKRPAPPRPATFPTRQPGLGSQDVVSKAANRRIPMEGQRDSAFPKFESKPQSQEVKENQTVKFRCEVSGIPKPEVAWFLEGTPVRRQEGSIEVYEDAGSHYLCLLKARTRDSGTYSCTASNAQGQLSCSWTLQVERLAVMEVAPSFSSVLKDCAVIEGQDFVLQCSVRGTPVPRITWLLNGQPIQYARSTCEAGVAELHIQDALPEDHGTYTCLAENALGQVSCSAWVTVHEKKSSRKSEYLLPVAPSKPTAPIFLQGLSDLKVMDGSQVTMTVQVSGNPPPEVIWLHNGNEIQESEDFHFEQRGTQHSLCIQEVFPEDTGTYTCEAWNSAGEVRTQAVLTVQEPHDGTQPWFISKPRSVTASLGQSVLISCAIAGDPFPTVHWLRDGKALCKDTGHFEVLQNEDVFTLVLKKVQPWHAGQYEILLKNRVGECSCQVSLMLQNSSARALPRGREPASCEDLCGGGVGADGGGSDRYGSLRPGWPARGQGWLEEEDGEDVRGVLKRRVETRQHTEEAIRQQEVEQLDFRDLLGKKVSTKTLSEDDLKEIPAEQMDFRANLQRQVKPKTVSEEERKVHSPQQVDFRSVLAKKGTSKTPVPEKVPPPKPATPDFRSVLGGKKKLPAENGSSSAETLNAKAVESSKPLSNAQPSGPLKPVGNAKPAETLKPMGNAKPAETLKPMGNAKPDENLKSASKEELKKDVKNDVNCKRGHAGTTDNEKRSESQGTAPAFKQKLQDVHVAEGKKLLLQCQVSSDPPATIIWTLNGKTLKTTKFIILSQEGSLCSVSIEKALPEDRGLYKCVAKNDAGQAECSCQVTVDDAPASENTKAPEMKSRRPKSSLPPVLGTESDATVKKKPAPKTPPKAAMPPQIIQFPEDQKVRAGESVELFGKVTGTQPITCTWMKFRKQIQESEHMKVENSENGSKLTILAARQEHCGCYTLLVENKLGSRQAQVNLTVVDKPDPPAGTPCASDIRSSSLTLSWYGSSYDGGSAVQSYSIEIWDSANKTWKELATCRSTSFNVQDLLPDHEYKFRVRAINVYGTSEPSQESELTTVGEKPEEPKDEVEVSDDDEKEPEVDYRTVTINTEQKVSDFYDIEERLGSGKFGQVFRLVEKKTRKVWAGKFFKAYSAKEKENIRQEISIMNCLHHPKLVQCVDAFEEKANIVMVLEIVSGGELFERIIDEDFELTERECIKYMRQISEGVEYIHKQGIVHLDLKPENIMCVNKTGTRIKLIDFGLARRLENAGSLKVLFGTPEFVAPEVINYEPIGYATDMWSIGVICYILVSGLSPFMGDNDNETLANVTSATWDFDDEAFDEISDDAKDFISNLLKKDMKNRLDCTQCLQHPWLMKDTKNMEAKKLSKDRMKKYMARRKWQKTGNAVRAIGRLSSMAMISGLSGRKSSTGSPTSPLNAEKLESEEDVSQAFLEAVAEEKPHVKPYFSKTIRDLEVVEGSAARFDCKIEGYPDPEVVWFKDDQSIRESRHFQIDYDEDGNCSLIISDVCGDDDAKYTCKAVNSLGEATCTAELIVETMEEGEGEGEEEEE

Usually Kd stands for the constant that tells how readily two partners part at equilibrium. With `CCc1nc(C(N)=O)c(Nc2ccc(N3CCC(N4CCN(C)CC4)CC3)c(OC)c2)nc1NC1CCOCC1` [GILTERITINIB], the Kd is > 30 µM (inactive) on Septin-9; 0.188 µM (active) in assay [1]; > 30 µM (inactive) in assay [2]; 0.208 µM in assay [3]; > 30 µM (inactive) in assay [4].

Turning to `Cc1cc(Nc2nc(N[C@@H](C)c3ncc(F)cn3)ncc2Cl)n[nH]1` [AZD-1480], the Kd (on Septin-9; in assay [1]; in assay [2]; in assay [4]) was > 30 µM (inactive) throughout.

In the case of `Cc1ccc(C(=O)Nc2ccc(Oc3cc4cnn(C)c4cc3-c3cn[nH]c3)c(F)c2)c(=O)n1-c1ccc(F)cc1` [MERESTINIB], the Kd (on Septin-9; in assay [1]; in assay [2]; in assay [4]) was > 30 µM (inactive) each time.

Consider `CC1(C)CNc2cc(NC(=O)c3cccnc3NCc3ccncc3)ccc21` [MOTESANIB], for which the Kd (at Septin-9; in assay [2]; in assay [3]; in assay [4]) was > 30 µM (inactive) each time.

As to `COc1cc2c(N3CCN(C(=O)Nc4ccc(OC(C)C)cc4)CC3)ncnc2cc1OCCCN1CCCCC1` [TANDUTINIB], the equilibrium dissociation constant (Kd) at Septin-9 was 0.01 µM; in assay [2], > 30 µM (inactive); in assay [3] it was > 30 µM (inactive); in assay [4] it was > 30 µM (inactive).

With `COc1ccc(-c2ccc3ncc4c(c3c2)n(-c2ccc(N3CCNCC3)c(C(F)(F)F)c2)c(=O)n4C)cn1` [BGT-226 FREE BASE], the Kd (on Septin-9; in assay [1]; in assay [2]; in assay [4]) was > 30 µM (inactive) in each case.

With `O=C(O)c1ccc2c(c1)nc(Nc1cccc(Cl)c1)c1ccncc12` [SILMITASERTIB], the Kd (at Septin-9; in assay [1]; in assay [2]; in assay [4]) was > 30 µM (inactive) in each case.

Consider `CN(C)C/C=C/C(=O)Nc1cc2c(Nc3ccc(F)c(Cl)c3)ncnc2cc1O[C@H]1CCOC1` [AFATINIB], for which the Kd (on Septin-9; in assay [2]; in assay [3]; in assay [4]) was > 30 µM (inactive) throughout.

Consider `CCN1CCN(Cc2ccc(Nc3ncc(F)c(-c4cc(F)c5nc(C)n(C(C)C)c5c4)n3)nc2)CC1` [ABEMACICLIB], for which the Kd (at Septin-9; in assay [1]; in assay [2]; in assay [4]) was > 30 µM (inactive) throughout.

With `Cn1cnc2c(F)c(Nc3ccc(Br)cc3Cl)c(C(=O)NOCCO)cc21` [SELUMETINIB], the Kd (on Septin-9; in assay [2]; in assay [3]; in assay [4]) was > 30 µM (inactive) throughout.

In the case of `C=CC(=O)Nc1cccc(Nc2nc(Nc3ccc(N4CCN(C(C)=O)CC4)cc3OC)ncc2C(F)(F)F)c1` [ROCILETINIB], the Kd (on Septin-9; in assay [1]; in assay [2]; in assay [4]) was > 30 µM (inactive) throughout.

As for `O=c1[nH]c([C@@H]2CCCN2)nc2c1oc1ccc(Cl)cc12`, the Kd (on Septin-9; in assay [1]; in assay [2]; in assay [4]) was > 30 µM (inactive) each time.

On to `Cn1c(=O)c(F)c(Nc2ccc(I)cc2F)c2c(=O)n(C[C@@H](O)CO)cnc21` [TAK-733], for which the Kd (at Septin-9; in assay [1]; in assay [2]; in assay [4]) was > 30 µM (inactive) each time.

As to `COc1cccc(Nc2ncnn3ccc(CN4CC[C@@H](N)[C@H](O)C4)c23)c1` [BMS-690514], the Kd (at Septin-9; in assay [1]; in assay [3]; in assay [4]) was > 30 µM (inactive) throughout.

For `C=CC(=O)Nc1cc(Nc2nccc(-c3cn(C)c4ccccc34)n2)c(OC)cc1N(C)CCN(C)C` [OSIMERTINIB], the Kd (at Septin-9; in assay [1]; in assay [2]; in assay [4]) was > 30 µM (inactive) each time.

In the case of `C=CCN(/C=C1/C(=O)O[C@H](COC)[C@@]2(C)C1=C(O)C(=O)C1=C2[C@H](OC(C)=O)C[C@]2(C)C(=O)CC[C@@H]12)CC=C` [SONOLISIB], the Kd (on Septin-9; in assay [1]) was > 30 µM (inactive) in each case.

With `CCc1cc2c(cc1N1CCC(N3CCOCC3)CC1)C(C)(C)c1[nH]c3cc(C#N)ccc3c1C2=O` [ALECTINIB], the Kd (on Septin-9; in assay [1]; in assay [2]; in assay [4]) was > 30 µM (inactive) each time.

`CC(C)CC(=O)Nc1[nH]nc2c1CN(C(=O)C1CCN(C)CC1)C2(C)C` [PHA-793887]: the Kd (on Septin-9; in assay [1]; in assay [2]; in assay [4]) was > 30 µM (inactive) each time.

For `COc1cc2c(Oc3ccc4[nH]c(C)cc4c3F)ncnc2cc1OCCCN1CCCC1` [CEDIRANIB], the Kd is > 30 µM (inactive) at Septin-9, > 30 µM (inactive) in assay [2], 0.008 µM in assay [3] and > 30 µM (inactive) in assay [4].

Take `C[C@]1(O)C[C@@H](c2nc(-c3ccc4ccc(-c5ccccc5)nc4c3)c3c(N)nccn32)C1` [LINSITINIB]: the Kd (on Septin-9; in assay [1]; in assay [2]; in assay [4]) was > 30 µM (inactive) throughout.

Consider `C[C@@]1(C(=O)Nc2ccc(F)nc2)CCCN1c1nc(Nc2cc(C3CC3)n[nH]2)c2cccn2n1` [BMS-754807], for which the Kd (on Septin-9; in assay [2]; in assay [4]) was > 30 µM (inactive) each time.

In the case of `O=C(NOC[C@H](O)CO)c1ccc(F)c(F)c1Nc1ccc(I)cc1F` [MIRDAMETINIB], the Kd (at Septin-9; in assay [1]; in assay [2]; in assay [4]) was > 30 µM (inactive) each time.
